Test results: ChEMBL document CHEMBL3611997, “4-Fluoro-3',4',5'-trimethoxychalcone as a new anti-invasive agent. From discovery to initial validation in an in vivo metastasis model” (Eur J Med Chem, 2015)
In brackets after ≈: the same amount, converted by molar mass. Activity calls are given as the source filed them. The rule behind the calls is not given here.

Legend:
Mus musculus [1] = test: Toxicity in Swiss nu/nu mouse assessed as hematological anomalies by measuring ALT level at 16 mg/kg, ip administered three times a week for two-week period measured on day 15 (reference value: 29.6 +/- 5.6 IU/L); format: organism-based; settings: in vivo
[2] = Cytotoxicity against human MCF7/6 cells assessed as reduction of mitochondrial activity at 0.01 to 100 umol/L after 6 days by MTT assay; format: cell-based; settings: mcf7/6, 144 h
[3] = Antiinvasive activity in human in BLM cells assessed as reduction of amount of cells present on filter at 100 umol/L after 24 hrs by matrigel invasion assay (reference value: 100%); format: functional; design: scale not given: the % may be the effect or the level left
CYP1A2 = target: T1, CYP1A2 (Homo sapiens, UniProt P05177); test: Inhibition of CYP1A2 (unknown origin) at 10 umol/L; format: ADME
T1 sequence (P05177 whole entry): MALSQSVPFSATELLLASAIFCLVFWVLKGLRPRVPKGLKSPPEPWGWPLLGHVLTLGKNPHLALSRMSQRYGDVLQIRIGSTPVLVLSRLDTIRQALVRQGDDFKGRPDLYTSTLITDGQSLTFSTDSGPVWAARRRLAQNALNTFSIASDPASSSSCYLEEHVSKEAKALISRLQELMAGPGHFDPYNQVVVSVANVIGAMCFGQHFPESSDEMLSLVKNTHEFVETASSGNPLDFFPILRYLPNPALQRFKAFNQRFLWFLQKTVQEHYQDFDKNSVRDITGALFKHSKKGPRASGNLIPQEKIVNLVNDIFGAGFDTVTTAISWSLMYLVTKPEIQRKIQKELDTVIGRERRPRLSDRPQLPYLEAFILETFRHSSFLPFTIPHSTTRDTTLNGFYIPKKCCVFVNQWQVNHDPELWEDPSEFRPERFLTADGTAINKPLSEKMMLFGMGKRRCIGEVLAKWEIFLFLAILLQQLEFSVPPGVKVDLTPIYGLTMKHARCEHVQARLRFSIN

[4] = Permeability across apical to basolateral side of human Caco2 cells assessed as compound recovery at 10 umol/L at pH 7.4; format: ADME, cell-based; settings: Caco-2, pH 7.4, read-out: Drug recovery
Mus musculus [5] = test: Toxicity in Swiss nu/nu mouse assessed as histological anomalies in kidney at 1.6 to 160 mg/kg, ip administered three times a week for two-week period measured on day 15; format: organism-based; settings: in vivo
[6] = Cytotoxicity against human MCF7/6 cells assessed as reduction of cellular protein content at 0.01 to 100 umol/L after 6 days by SRB assay; format: cell-based; settings: mcf7/6, 144 h
Tubulin (Sus scrofa) = Tubulin (Sus scrofa) (UniProt P02554+P02550); test: Inhibition of porcine brain tubulin polymerization assessed as microtubule assembly at 1 umol/L after 15 mins by DAPI staining
Tubulin (Sus scrofa), sequence (P02550 whole entry, looked up): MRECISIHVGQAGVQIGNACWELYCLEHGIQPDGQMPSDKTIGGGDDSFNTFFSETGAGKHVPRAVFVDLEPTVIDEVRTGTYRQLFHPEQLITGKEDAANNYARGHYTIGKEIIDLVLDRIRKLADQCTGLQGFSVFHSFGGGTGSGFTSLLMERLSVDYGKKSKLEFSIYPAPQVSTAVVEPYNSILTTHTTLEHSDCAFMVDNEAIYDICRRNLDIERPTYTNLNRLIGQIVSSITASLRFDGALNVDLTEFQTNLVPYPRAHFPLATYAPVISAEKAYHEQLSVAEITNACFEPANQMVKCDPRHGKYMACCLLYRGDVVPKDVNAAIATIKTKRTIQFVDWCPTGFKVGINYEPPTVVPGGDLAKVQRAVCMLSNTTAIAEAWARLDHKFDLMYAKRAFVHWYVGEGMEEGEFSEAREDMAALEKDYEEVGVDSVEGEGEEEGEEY
Tubulin (Sus scrofa), sequence (P02554 whole entry, looked up): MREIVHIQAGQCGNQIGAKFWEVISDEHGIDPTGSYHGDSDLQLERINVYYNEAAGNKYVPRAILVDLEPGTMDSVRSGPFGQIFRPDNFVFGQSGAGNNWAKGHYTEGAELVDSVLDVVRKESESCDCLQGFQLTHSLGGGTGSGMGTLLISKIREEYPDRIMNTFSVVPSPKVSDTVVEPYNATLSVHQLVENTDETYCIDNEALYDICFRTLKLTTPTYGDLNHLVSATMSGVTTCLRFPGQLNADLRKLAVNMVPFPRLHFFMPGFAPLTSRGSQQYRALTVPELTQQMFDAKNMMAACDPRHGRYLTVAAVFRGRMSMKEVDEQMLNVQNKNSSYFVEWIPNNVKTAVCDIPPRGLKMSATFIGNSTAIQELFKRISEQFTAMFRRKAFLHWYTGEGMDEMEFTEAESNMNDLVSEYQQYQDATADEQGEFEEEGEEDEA

[7] = Half life in human blood at 1 umol/L; format: ADME, tissue-based
[8] = Aqueous solubility of the compound in PBS at pH 7.4 at 200 umol/L; format: physicochemical
[9] = Cytotoxicity against human MCF7/6 cells assessed as reduction of mitochondrial activity at 10 to 100 umol/L after 8 days by MTT assay; format: cell-based; settings: mcf7/6, 192 h
hERG = hERG (Homo sapiens, UniProt Q12809); test: Inhibition of human ERG assessed as reduction of tail current at 1 umol/L
hERG, sequence (Q12809 whole entry): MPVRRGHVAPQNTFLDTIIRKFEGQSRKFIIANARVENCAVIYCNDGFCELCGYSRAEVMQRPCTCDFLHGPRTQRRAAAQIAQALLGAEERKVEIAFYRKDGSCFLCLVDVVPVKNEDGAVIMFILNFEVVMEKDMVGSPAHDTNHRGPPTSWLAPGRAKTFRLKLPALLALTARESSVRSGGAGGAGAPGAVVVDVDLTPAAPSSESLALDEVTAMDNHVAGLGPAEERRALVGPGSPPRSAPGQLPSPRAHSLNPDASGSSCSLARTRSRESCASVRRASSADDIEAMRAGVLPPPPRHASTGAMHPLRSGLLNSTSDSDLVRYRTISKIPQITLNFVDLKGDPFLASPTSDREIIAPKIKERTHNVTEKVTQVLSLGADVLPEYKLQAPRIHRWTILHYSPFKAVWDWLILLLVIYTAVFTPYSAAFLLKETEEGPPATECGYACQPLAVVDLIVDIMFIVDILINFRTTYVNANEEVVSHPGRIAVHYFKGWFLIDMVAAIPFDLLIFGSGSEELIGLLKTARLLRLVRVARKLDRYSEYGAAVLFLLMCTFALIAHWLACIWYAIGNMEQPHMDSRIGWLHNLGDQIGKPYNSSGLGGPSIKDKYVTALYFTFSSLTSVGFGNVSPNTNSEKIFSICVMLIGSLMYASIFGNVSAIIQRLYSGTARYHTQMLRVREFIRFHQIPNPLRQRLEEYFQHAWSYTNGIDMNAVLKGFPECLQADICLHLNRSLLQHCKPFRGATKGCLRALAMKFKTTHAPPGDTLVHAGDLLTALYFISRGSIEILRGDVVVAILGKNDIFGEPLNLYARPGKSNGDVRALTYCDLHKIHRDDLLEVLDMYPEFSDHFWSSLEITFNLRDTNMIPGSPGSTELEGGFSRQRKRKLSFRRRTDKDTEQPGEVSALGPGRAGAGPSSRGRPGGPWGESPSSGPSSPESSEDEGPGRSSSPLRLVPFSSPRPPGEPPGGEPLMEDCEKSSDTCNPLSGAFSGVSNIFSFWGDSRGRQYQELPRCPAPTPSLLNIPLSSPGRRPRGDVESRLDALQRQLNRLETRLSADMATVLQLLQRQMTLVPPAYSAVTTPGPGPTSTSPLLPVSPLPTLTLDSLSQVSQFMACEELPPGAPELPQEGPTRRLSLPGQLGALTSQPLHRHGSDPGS

Mus musculus [10] = test: Toxicity in Swiss nu/nu mouse assessed as hematological anomalies by measuring ALT level at 1.6 mg/kg, ip administered three times a week for two-week period measured on day 15 (reference value: 29.6 +/- 5.6 IU/L); format: organism-based; settings: in vivo
[11] = Aqueous solubility of the compound in simulated gastric fluid at 200 umol/L; format: physicochemical
[12] = Toxicity in human HepG2 cells assessed as cell viability at 10 umol/L; format: cell-based; settings: read-out: Activity
CYP3A4 = CYP3A4 (Homo sapiens, UniProt P08684); test: Inhibition of CYP3A4 (unknown origin) at 10 umol/L; format: ADME
CYP3A4, sequence (P08684 whole entry): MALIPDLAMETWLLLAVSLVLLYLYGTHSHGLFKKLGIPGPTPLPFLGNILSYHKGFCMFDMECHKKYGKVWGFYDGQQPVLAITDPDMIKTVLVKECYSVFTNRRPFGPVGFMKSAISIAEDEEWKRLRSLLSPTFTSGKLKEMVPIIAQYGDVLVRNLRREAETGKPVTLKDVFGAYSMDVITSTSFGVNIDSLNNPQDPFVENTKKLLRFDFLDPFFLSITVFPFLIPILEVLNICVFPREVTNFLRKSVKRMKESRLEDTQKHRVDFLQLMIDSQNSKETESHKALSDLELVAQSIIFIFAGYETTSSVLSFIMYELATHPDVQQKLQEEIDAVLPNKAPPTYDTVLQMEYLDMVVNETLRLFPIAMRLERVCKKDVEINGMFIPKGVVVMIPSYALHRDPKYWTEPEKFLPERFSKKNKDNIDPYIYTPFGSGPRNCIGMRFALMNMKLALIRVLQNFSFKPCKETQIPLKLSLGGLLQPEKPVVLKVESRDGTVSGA

Mus musculus [13] = test: Toxicity in Swiss nu/nu mouse assessed as histological anomalies in spleen at 1.6 to 160 mg/kg, ip administered three times a week for two-week period measured on day 15; format: organism-based; settings: in vivo
Mus musculus [14] = test: Toxicity in human MCF7/6 cells xenografted Swiss nu/nu mouse assessed as macroscopic metastases at 160 mg/kg, ip administered thrice a week measured after 3 months; format: organism-based; settings: in vivo, 2191.5 h
[15] = Aqueous solubility of the compound in simulated intestinal fluid at 200 umol/L; format: physicochemical
Mus musculus [16] = test: Toxicity in Swiss nu/nu mouse assessed as hematological anomalies by measuring creatinine level at 160 mg/kg, ip administered three times a week for two-week period measured on day 15 (reference value: 0.29 +/- 0.02 mg/dL); format: organism-based; settings: in vivo
Mus musculus [17] = test: Toxicity in Swiss nu/nu mouse assessed as hematological anomalies by measuring AST level at 16 mg/kg, ip administered three times a week for two-week period measured on day 15 (reference value: 254.2 +/- 144.6 IU/L); format: organism-based; settings: in vivo
Mus musculus [18] = test: Toxicity in Swiss nu/nu mouse assessed as hematological anomalies by measuring WBC count at 1.6 mg/kg, ip administered three times a week for two-week period measured on day 15 (reference value: 2420 +/- 782 /microL); format: organism-based; settings: in vivo
CYP2D6 = CYP2D6 (Homo sapiens, UniProt P10635); test: Inhibition of CYP2D6 (unknown origin) at 10 umol/L; format: ADME
CYP2D6, sequence (P10635 whole entry): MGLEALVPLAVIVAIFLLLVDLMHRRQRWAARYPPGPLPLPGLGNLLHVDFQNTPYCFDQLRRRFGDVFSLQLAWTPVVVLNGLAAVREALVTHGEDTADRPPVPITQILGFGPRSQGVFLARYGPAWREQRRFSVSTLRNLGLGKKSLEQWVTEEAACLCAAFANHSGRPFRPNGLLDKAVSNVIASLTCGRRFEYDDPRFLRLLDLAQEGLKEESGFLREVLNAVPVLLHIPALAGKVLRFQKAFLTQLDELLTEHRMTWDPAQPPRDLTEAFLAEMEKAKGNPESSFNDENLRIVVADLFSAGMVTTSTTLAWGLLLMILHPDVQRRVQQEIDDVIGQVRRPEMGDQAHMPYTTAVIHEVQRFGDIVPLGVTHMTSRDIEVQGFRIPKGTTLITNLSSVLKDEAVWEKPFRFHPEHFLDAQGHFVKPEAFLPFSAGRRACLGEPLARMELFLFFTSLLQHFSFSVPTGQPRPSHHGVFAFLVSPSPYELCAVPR

MCF7/6 = test: Inhibition of cell migration in human MCF7/6 cells at 0.01 to 10 umol/L after 24 hrs by wound scratch assay; format: functional, cell-based
[19] = Toxicity in human HepG2 cells assessed as cell viability at 0.1 umol/L; format: cell-based; settings: read-out: Activity
SK-OV-3 = test: Antiinvasive activity in human in SKOV3 cells assessed as reduction of amount of cells present on filter at 1 umol/L after 24 hrs by matrigel invasion assay (reference value: 100%); format: functional; design: scale not given: the % may be the effect or the level left
[20] = Intrinsic clearance in Sprague-Dawley rat liver microsomes at 0.1 umol/L; format: ADME; settings: read-out: CLH
Mus musculus [21] = test: Toxicity in Swiss nu/nu mouse assessed as histological anomalies in liver at 1.6 to 160 mg/kg, ip administered three times a week for two-week period measured on day 15; format: organism-based; settings: in vivo
[22] = Toxicity in human HepG2 cells assessed as cell viability; format: cell-based; settings: HepG2 cells
MDA-MB-231 = test: Cytotoxicity against human MDA-MB-231 cells expressing GFP assessed as reduction of cellular protein content at 0.01 to 100 umol/L after 6 days by SRB assay; format: cell-based; settings: mda-mb-231, 144 h

Q: With `COc1cc(C(=O)/C=C/c2ccc(F)cc2)cc(OC)c1OC` as the compound, how does the Activity (Mus musculus [1]) read?
A: Its Activity is 28.1 IU/L.

Q: And the Activity [2]?
A: The Activity was “Non-toxic”.

Q: And the Activity [3]?
A: Its Activity is 2%.

Q: And the inhibition at 10 µM (CYP1A2)?
A: The inhibition at 10 µM was 35.7%.

Q: And the recovery at 10 µM [4]?
A: The recovery at 10 µM was 17%.

Q: And the Activity (Mus musculus [5])?
A: The Activity was “Non-toxic”.

Q: What about the Activity [6] of the same compound?
A: The Activity was “Non-toxic”.

Q: And the inhibition (Tubulin (Sus scrofa))?
A: The inhibition was -0.8%.

Q: What about the half-life at 1 µM [7] of the same compound?
A: The half-life at 1 µM was 10 min.

Q: What about the solubility at 200 µM [8] of the same compound?
A: Its solubility at 200 µM is 2.4 µM (≈ 0.759 µg/mL).

Q: What about the Activity [9] of the same compound?
A: The Activity was “Toxic”.

Q: And the inhibition at 1 µM (hERG)?
A: Its inhibition at 1 µM is 9.8%.

Q: What about the Activity (Mus musculus [10]) of the same compound?
A: The Activity was 30.5 IU/L.

Q: And the solubility at 200 µM [11]?
A: Its solubility at 200 µM is 9.1 µM (≈ 2.88 µg/mL).

Q: And the viability at 10 µM [12]?
A: The viability at 10 µM was 44.3%.

Q: And the inhibition at 10 µM (CYP3A4)?
A: The inhibition at 10 µM was 27.2%.

Q: What about the Activity (Mus musculus [13]) of the same compound?
A: Its Activity is “Non-toxic”.

Q: And the Activity (Mus musculus [14])?
A: Its Activity is “Non-toxic”.

Q: And the solubility at 200 µM [15]?
A: The solubility at 200 µM was 7.9 µM (≈ 2.5 µg/mL).

Q: And the Activity (Mus musculus [16])?
A: Its Activity is 0.28 mg/dL.

Q: What about the Activity (Mus musculus [17]) of the same compound?
A: Its Activity is 167.5 IU/L.

Q: And the Activity (Mus musculus [18])?
A: The Activity was 4400 µL⁻¹.

Q: What about the inhibition at 10 µM (CYP2D6) of the same compound?
A: The inhibition at 10 µM was 18.9%.

Q: What about the inhibition (MCF7/6) of the same compound?
A: The inhibition was “inactive”.

Q: And the viability at 0.1 µM [19]?
A: The viability at 0.1 µM was 93.7%.

Q: What about the Activity (SK-OV-3) of the same compound?
A: The Activity was 18%.

Q: And the microsomal CLint at 0.1 µM [20]?
A: Its microsomal CLint at 0.1 µM is 339 µL/min/mg.

Q: What about the Activity (Mus musculus [21]) of the same compound?
A: The Activity was “Non-toxic”.

Q: And the EC50 [22]?
A: Its EC50 is 10 µM.

Q: And the Activity (MDA-MB-231)?
A: Its Activity is “Non-toxic”.
